One compound from patent publication US9339486B2, “Heterocyclic modulators of cannabinoid receptors” (THE CLEVELAND CLINIC FOUNDATION, priority 2008, dated 2016) can be followed below.

Usually EC50 stands for the concentration at which the effect is half-maximal.

The assay deals with hCB1 (human CB1) receptors (Homo sapiens (Human), UniProt P21554). Put plainly: GTPγ[35S] functional assay, CHO membrane extracts hCB1. The class given is biochemical. As to the method:
Functional activity was evaluated using GTPγ[^35S] assay in CHO membrane extracts expressing recombinant hCB1 (human CB1) receptors or hCB2 (human CB2) receptors. The assay relies on the binding of GTPγ[^35S], a radiolabeled nonhydrolyzable GTP analogue, to the G protein upon binding of an agonist of the G-protein-coupled receptor. In this system, agonists stimulate GTPγ[^35S] binding whereas neutral antagonist have no effect and inverse agonists decrease GTPγ[^35S] basal binding.
The compound of Example 3 was solubilized in 100% DMSO at a concentration of 10 mM within 4 hours of the first testing session (master solution). A predilution for the dose response curve was performed in 100% DMSO and then diluted 100 fold in assay buffer at a concentration 2 fold higher than the concentration to be tested. […] For GTPγS membranes were mixed with GDP diluted in assay buffer to give 30 μM solution (volume:volume) and incubated for at least […] on ice. In parallel, GTPγ[^35S] (GE Healthcare, Catalogue number SJ1308) were mixed with the beads (PVT-WGA (GE Healthcare, RPNQ001)), diluted in assay buffer at 50 mg/ml (0.5 mg/10 μl) (volume:volume) just before starting the reaction. […] Then the plates were centrifuged for 10 min at 2000 rpm and counted for 1 min/well with a PerkinElmer TopCount reader. […]

Regarding `CC1(Cc2ccccc2)COc2cc(C(=O)N3CCCCC3)ccc21` (centres unmarked) [Example 3, 3-benzyl-3-methyl-2,3-dihydrobenzofuran-6-carboxylic acid-piperidine amide], the “agonistic or antagonistic activities at hCB1 receptors” value was “did not result in any agonistic or antagonistic activities”. For the same compound, the EC50 (read-out: Agonist EC50 (mean ± s.e. mean) GTPγ[35S] functional assays hCB1) was > 10 µM.
